According to ChEMBL document CHEMBL3853265 (Medchemcomm, 2016):

Legend:
[1] = Dissociation constant, pKa of the compound; format: physicochemical
Rattus norvegicus = test: Toxicity in po dosed Wistar Han rat assessed as drug tolerance administered for 14 days; format: organism-based; conditions: in vivo, 336 h
[2] = Intrinsic clearance in human liver microsomes; format: ADME; conditions: read-out: CLH
[3] = Permeability in RRCK cells; format: ADME, cell-based, Canis lupus familiaris, MDCKII-LE; conditions: dog, MDCK; read-out: permeability
[4] = molecular target: T1, Solute carrier family 22 member 11 (Homo sapiens, UniProt Q9NSA0); test: Inhibition of OAT4 (unknown origin)
T1 sequence (Q9NSA0 whole entry): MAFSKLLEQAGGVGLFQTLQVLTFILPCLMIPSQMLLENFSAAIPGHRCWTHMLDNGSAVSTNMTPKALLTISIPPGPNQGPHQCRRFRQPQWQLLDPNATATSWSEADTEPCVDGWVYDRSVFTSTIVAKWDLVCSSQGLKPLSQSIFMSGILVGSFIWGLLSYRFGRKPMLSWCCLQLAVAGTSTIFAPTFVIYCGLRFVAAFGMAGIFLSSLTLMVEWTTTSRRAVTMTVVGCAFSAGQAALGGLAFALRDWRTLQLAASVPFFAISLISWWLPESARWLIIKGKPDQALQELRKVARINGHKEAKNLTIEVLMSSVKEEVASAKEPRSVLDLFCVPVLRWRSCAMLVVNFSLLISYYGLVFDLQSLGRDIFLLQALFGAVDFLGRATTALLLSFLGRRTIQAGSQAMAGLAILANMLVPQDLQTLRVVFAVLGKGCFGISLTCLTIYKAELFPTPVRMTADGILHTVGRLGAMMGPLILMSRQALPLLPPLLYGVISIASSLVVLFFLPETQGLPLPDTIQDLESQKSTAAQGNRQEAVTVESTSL

[5] = Intrinsic clearance in dog hepatocytes assessed per 10^6 cells; format: ADME, cell-based, Canis lupus familiaris, Hepatocyte
[6] = Oral bioavailability in rat at 3 mg/kg; format: ADME, organism-based; conditions: in vivo
[7] = Half life in rat at 1 mg/kg, iv and 3 mg/kg, po; format: ADME, organism-based; conditions: in vivo
[8] = molecular target: Voltage-gated inwardly rectifying potassium channel KCNH2 (Homo sapiens, UniProt Q12809); test: Inhibition of human ERG by patch clamp method
Chain of Voltage-gated inwardly rectifying potassium channel KCNH2 (Q12809 whole entry): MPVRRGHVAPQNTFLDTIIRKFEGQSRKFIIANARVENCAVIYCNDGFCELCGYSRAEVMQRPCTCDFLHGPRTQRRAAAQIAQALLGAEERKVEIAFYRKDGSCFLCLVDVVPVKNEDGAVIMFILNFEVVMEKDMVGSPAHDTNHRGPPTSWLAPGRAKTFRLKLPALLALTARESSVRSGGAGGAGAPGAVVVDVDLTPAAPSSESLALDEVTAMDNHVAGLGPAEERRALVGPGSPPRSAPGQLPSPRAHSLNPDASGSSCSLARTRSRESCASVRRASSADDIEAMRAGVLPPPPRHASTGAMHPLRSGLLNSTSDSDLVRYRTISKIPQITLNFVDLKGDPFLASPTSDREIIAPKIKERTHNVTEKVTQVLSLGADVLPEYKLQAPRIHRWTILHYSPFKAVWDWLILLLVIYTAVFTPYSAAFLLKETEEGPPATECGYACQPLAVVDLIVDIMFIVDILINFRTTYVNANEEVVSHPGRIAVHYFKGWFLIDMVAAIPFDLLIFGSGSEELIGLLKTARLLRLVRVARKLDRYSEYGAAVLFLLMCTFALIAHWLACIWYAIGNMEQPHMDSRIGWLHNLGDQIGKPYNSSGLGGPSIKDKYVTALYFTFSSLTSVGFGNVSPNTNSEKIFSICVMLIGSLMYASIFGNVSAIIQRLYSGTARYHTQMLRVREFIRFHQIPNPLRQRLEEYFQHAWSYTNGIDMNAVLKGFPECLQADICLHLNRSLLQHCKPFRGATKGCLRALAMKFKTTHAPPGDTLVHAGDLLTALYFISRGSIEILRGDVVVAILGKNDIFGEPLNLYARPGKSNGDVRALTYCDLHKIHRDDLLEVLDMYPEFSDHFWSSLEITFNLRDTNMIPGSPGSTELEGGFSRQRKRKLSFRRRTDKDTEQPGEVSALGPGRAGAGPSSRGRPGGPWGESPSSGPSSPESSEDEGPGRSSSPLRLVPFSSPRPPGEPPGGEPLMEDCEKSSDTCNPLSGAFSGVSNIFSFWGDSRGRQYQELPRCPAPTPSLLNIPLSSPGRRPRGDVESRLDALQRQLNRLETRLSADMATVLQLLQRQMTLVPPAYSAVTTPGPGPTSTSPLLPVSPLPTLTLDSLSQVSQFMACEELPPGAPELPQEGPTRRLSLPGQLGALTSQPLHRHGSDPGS

[9] = Intrinsic clearance in rat liver microsomes; format: ADME; conditions: read-out: CLH
[10] = Fraction unbound in human plasma; format: ADME, cell-free
[11] = Mutagenicity in […] by Ames test in presence of […]; format: toxicity
[12] = molecular target: T2, Solute carrier organic anion transporter family member 1B3 (Homo sapiens, UniProt Q9NPD5); test: Drug uptake assessed as human OATP1B3-mediated drug accumulation by cell-based assay relative to wild type protein; format: ADME
T2 sequence (Q9NPD5 whole entry): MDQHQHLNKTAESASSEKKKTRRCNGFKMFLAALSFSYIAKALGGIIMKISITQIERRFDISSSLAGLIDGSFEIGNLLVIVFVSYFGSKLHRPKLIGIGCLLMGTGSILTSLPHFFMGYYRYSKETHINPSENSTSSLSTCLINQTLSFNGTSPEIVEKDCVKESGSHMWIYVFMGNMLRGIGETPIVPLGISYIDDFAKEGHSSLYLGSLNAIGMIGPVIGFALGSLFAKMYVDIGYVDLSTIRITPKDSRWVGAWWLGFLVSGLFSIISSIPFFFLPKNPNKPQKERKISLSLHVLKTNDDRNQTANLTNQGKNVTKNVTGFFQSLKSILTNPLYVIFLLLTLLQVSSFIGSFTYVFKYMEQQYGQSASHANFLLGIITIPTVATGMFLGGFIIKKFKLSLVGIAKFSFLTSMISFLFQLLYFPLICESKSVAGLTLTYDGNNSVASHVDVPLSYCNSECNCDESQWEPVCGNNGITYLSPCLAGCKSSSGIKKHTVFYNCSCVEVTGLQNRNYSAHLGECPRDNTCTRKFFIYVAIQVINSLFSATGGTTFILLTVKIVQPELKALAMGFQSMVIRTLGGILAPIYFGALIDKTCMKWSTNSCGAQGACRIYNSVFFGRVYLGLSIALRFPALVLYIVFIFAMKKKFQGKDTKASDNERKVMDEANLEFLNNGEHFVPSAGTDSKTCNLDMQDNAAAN

[13] = Intrinsic clearance in rat hepatocytes assessed per 10^6 cells; format: ADME, cell-based, Hepatocyte
[14] = Cytotoxicity against THLE cells; format: toxicity, cell-based; conditions: human
[15] = molecular target: T3, Solute carrier family 22 member 6 (Homo sapiens, UniProt Q4U2R8); test: Inhibition of OAT1 (unknown origin)
T3 sequence (Q4U2R8 whole entry): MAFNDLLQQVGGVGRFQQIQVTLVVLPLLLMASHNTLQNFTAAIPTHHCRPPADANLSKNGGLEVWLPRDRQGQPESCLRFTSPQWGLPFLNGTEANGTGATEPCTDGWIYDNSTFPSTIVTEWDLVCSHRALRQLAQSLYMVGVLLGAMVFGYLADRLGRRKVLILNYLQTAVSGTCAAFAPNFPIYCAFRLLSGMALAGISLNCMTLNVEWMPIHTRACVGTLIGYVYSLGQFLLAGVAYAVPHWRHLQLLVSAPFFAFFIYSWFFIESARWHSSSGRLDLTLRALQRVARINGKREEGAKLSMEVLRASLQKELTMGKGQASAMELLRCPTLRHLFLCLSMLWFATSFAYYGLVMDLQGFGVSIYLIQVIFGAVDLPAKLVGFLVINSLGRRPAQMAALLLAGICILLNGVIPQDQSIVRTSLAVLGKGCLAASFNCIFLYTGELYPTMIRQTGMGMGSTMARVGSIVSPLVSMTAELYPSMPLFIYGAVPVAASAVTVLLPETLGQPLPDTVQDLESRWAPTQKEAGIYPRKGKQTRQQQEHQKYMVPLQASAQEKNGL

[16] = Octanol-water partition co-efficient, log D of the compound by shake flask method; format: physicochemical
[17] = Renal clearance in dog at 1 mg/kg, iv and 3 mg/kg, po relative to GFR x fraction unbound; format: ADME, organism-based, Canis lupus familiaris; conditions: in vivo
[18] = Volume of distribution at steady state in rat at 1 mg/kg, iv and 3 mg/kg, po; format: ADME, organism-based; conditions: in vivo, read-out: Vdss
[19] = Unbound clearance in rat at 1 mg/kg, iv and 3 mg/kg, po; format: ADME, organism-based; conditions: in vivo

Structure (SMILES): O=S(=O)(Nc1cncc(C(F)(F)F)c1)c1ccccc1C(F)(F)F
- pKa [1]: 5.2
- Activity (Rattus norvegicus): <= 100 mg/kg/day
- microsomal CLint [2]: 11 µL/min/mg
- Papp [3]: 21 ×10⁻⁶ cm/s
- IC50 [4]: 8.5 µM
- CLH [5]: < 6 µL/min/1e6 cells
- bioavailability [6]: 150%
- half-life [7]: 3.3 h
- IC50 [8]: > 100 µM
- microsomal CLint [9]: 35 µL/min/mg
- fraction unbound [10]: 0.0034
- Activity [11]: Non-Toxic
- fold change (FC) [12]: 0.702
- CLH [13]: 7 µL/min/1e6 cells
- Activity [14]: 228 µM
- IC50 [15]: 9.3 µM
- logD [16]: 1.5
- CL [17]: < 2%
- Vd [18]: 0.14 L/kg
- CL free [19]: 324 mL/min/kg

Structure (SMILES): O=S(=O)(Nc1ccc(C(F)(F)F)nc1)c1ccccc1C(F)(F)F
- pKa [1]: 5.1
- Activity (Rattus norvegicus): <= 100 mg kg-1
- microsomal CLint [2]: < 8 µL/min/mg
- Papp [3]: 27 ×10⁻⁶ cm/s
- IC50 [4]: 9.4 µM
- CLH [5]: < 6 µL/min/1e6 cells
- bioavailability [6]: 98%
- half-life [7]: 27.3 h
- IC50 [8]: > 100 µM
- microsomal CLint [9]: < 14 µL/min/mg
- fraction unbound [10]: 0.0084
- Activity [11]: Non-Toxic
- fold change (FC) [12]: 0.582
- CLH [13]: < 6 µL/min/1e6 cells
- Activity [14]: 153 µM
- IC50 [15]: 12.3 µM
- logD [16]: 1.4
- CL [17]: < 2%
- Vd [18]: 0.4 L/kg
- CL free [19]: 41 mL/min/kg
